Laboratory results: patent US4595696A, “Polyene compounds useful in the treatment of allergic responses” (USV Pharmaceutical Corp., priority 1985, dated 1986)
Where two headings read alike, the source gives them in different places.

Legend:
5-Lipoxygenase = target: T1, 5-Lipoxygenase (Rattus norvegicus, UniProt P12527); assay: Inhibition of 5-Lipoxygenase, rat PMN (Protocol 1); format: cell-based; settings: rat neutrophils, 3 minutes at 30° C., 5-HETE formation; for IC50: [14C]-arachidonic acid and Calcium Ionophore A23187, read-out: Lox, Rat PMN (I50); for Inhibition of 5-Lipoxygenase, Lox, Rat PMN (given as %): concentration not given
T1 construct: endogenous in cells; host or cells: rat neutrophils (PMN)
T1 sequence (P12527 1-673): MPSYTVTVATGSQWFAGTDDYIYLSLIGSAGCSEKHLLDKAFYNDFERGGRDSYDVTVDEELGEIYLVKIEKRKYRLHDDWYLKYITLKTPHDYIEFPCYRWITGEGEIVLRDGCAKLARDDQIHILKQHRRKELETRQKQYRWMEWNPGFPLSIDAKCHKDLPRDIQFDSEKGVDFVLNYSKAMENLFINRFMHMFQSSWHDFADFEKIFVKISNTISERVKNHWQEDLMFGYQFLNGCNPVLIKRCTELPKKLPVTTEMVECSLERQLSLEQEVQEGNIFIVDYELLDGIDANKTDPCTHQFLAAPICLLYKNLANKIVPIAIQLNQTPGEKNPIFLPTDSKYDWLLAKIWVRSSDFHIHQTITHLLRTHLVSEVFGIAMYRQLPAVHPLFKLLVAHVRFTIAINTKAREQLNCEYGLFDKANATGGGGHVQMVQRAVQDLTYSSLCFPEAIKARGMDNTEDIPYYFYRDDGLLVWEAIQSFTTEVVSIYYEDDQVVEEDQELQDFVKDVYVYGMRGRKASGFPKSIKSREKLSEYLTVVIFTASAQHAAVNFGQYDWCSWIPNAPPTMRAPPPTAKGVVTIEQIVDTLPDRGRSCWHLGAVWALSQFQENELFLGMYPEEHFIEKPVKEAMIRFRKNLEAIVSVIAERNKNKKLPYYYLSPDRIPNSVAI
Procedure: Protocol 1 describes an assay to detect inhibitors of the lipoxygenase pathway. Such inhibitors are believed to be capable of modulating the biosynthesis of the leukotrienes, a property believed to be useful in treating asthma and inflammatory disease states. A suspension of rat neutrophils in buffer is incubated for 3 minutes at 30° C. with [^14 C]-arachidonic acid (AA) and Calcium Ionophore A23187. Citric acid (2M) is used to quench the reaction. […] The organic layer is washed with dilute acid and an aliquot is transferred to glass tubes and dried. […] The 5-HETE spots are visulaized with iodine, cut out and placed in scintillation vials for counting. After adjusting for the extraction efficiency, the amount (pmole) of [^14 C]-5-HETE in each of the tubes is quantitated. The net pmoles of 5-HETE are obtained by subtracting the pmoles of 5-HETE in the tubes containing buffer alone (blank) from the pmoles of 5-HETE in the tubes containing buffer and cells (control).

Phospholipase A2 (PLA2) = target: T2, Phospholipase A2 (PLA2) (Rattus norvegicus, UniProt P14423); assay: In Vitro Assay for Inhibitors of Phospholipase A2 (PLA2), rat platelets (Protocol II); format: biochemical
T2 construct: The PLA2 employed in this screen is obtained by aggregation of purified rat platelets; from tissue; host or cells: purified rat platelets, enzyme obtained by aggregation
T2 sequence (P14423 22-146): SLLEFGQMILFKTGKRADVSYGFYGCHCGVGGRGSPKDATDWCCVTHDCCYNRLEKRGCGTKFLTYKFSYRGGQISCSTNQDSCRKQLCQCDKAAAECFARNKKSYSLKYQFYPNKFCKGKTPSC
Text: An assay has been developed to test the ability of the invented compounds on the activity of the phospholipases. The following protocol describes a means for testing the inhibitory effect of these compounds on Phospholipase A2 (PLA2).
In Vitro Assay for Inhibitors of Phospholipase A2 Assayed at pH 7.0 (PLA2)
The PLA2 employed in this screen is obtained by aggregation of purified rat platelets. In the enzyme assay phosphatidylcholine having ^14 C-labeled palmitate residues at R1 and R2 is employed as substrate. PLA2 acts by cleaving the R2 fatty acid ester bond yielding free fatty acid and lysophosphatidylcholine as follows: [drawing 15]
Following completion of the reaction, the assay medium is acidified and extracted with hexane, which takes up unreacted substrate and free fatty acid product. The hexane extract is passed over a short silica column which retains 99% of the phosphatidylcholine. The ^14 C-labeled palmitic acid is not retained (90% recovery in eluate) and is collected directly in scintillation counting vials. The released palmitic acid is conveniently quantitated by liquid scintillation spectrometry.
The compounds were tested at 100 μM in a buffer containing 0.3 mM unlabeled phosphatidylcholine (PC), 20-30,000 cpm of ^14 C(CPC), […], 1 mM CaCl2 and 50 mM tris-HCl adjusted to pH 7.2 with 1N NaOH. […] The temperature of the buffer was maintained at a temperature of 37° C. The reaction was initiated by addition of the enzyme and it was terminated 30 minutes later by the addition of […] of 1N HCl.
Following acidification, the samples were extracted with 2 ml of 2-propanol and 2 ml of hexane, vortexed and allowed to stand until the phases separated. Free fatty acids (FFA) and some unreacted substrate were taken up in the isopropanol-saturated hexane. The hexane phase of the extraction mixture was transferred to a short silica gell column which retained reacted PC but not the FFA. The column effluent was collected directly in scintillation vials. The columns were washed once with an additional 2 ml of hexane. The radio labeled FFA were quantitated by liquid scintillation spectrometry.

[1] = rat platelets PLA2, phosphatidylcholine substrate, pH 7.2, 37° C., 30 minutes, read-out: PHOSPHOLIPASE A2 INHIBITION Activity (I50)

Row | SMILES | IC50 (5-Lipoxygenase) | IC50 (Phospholipase A2 (PLA2); [1]) | further results
1 | CC(=O)Nc1ccc(OC(=O)/C=C(C)/C=C/C=C(C)/C=C/C2=C(C)CCCC2(C)C)cc1 [Example 1, 4-Acetamidophenyl Retinoate] | 56 µM | 56 µM | 
2 | CC(=O)Nc1cccc(OC(=O)/C=C(C)/C=C/C=C(C)/C=C/C2=C(C)CCCC2(C)C)c1 [Example 2, 3-Acetamidophenyl Retinoate] | 55 µM | 48 µM | 
3 | CC(=O)Nc1ccc(SC(=O)/C=C(C)/C=C/C=C(C)/C=C/C2=C(C)CCCC2(C)C)cc1 [Example 3, Retinoic Acid 4-Acetamidophenyl Thioester] | 2.3 µM | 34 µM | 
4 | CC(=O)Nc1ccc(OC(=O)/C=C/C=C(C)/C=C/C=C(C)/C=C/C2=C(C)CCCC2(C)C)cc1 [Example 4, 4-Acetamidophenyl 5,9-dimethyl-11-(2,6,6-trimethyl-1-cyclohexen-1-yl)-2,4,6,8,10-undecapentaenoate] |  |  | IC50 (Phospholipase A2 (PLA2)): 17 µM
5 | CCOC(=O)/C=C(C)/C=C/C=C(C)/C=C/c1c(C)cc(OC)c(C)c1C [Ro 10 - 9359, reference compound] |  |  | Inhibition of 5-Lipoxygenase, Lox, Rat PMN (given as %) (5-Lipoxygenase): 10 ± 17%
6 | CCNC(=O)/C=C(C)/C=C/C=C(C)/C=C/c1c(C)cc(OC)c(C)c1C [Ro 11 - 1430, reference compound] |  |  | Inhibition of 5-Lipoxygenase, Lox, Rat PMN (given as %) (5-Lipoxygenase): -11 ± 19%
7 | CC1=C(/C=C/C(C)=C/C=C/C(C)=C/C(=O)O)C(C)(C)CCC1 [all trans retinoic acid, reference compound] | 90 µM |  | inhibition at 100 µM (Phospholipase A2 (PLA2); at 100 μM, rat platelets PLA2, pH 7.2, 37° C., 30 minutes): 32%
